# Experimental data published in EP3917907B1, “MODULATORS OF POTASSIUM ION CHANNELS AND USES THEREOF” (Universitá Degli Studi Di Salerno, priority 2019, dated 2020).
# Experiments:
# [1] = cited from earlier work
# Kv7.1 = target: T1, Kv7.1 (Homo sapiens, UniProt P51787); experiment: Whole-cell patch-clamp on CHO cells transiently expressing Kv7.1; type: cell-based; conditions: shift in ramp-voltage (ΔV) at 20% of maximal current, 0.01-10 µM
# T1 construct: expressed in transfected cells; host or cells: CHO cells (ATCC CRL-9618), transient transfection, pcDNA3.1(+)
# Procedure: (§1) According to the experimental protocol, these plasmids were expressed individually or in combination (in particular of Kv7.2 and Kv7.3), together with a plasmid-expressing enhanced green fluorescent protein (Clontech, Palo Alto, CA) used as a transfection marker. Total cDNA in the transfection mixture was kept at 4 µg. CHO cells were grown in 100-mm plastic Petri dishes in Dulbecco's modified Eagle's medium containing 10% fetal bovine serum, nonessential amino acids (0.1 mM), penicillin (50 U/ml), and streptomycin ([…]) in a humidified atmosphere at 37°C with 5% CO2. The cells were plated on glass coverslips coated with poly-L-lysine, and transfected one day after plating with the appropriate cDNA using Lipofectamine 2000 (Life Technologies), according to the manufacturer's protocol.
# Currents from CHO cells were recorded at room temperature (20-22°C) 24 hours after trasfection using the whole-cell configuration of the patch-clamp technique, with glass micropipettes of 3-5 MΩ resistance. During the recording, constant perfusion of extracellular solution was maintained. The extracellular solution contained (in mM): 138 NaCl, 2 CaCl2, 5.4 KCl, 1 MgCl2, 10 glucose, and 10 HEPES, at pH 7.4, adjusted with NaOH. The pipette (intracellular) solution contained (in mM): 140 KCl, 2 MgCl2, 10 EGTA, 10 HEPES, 5 Mg^2+-ATP, at pH 7.3-7.4, adjusted with KOH. Currents were recorded using an Axopatch-200A amplifier, filtered at 5 kHz, and digitized using a DigiData 1440A (Molecular Devices). The pCLAMP software (version 10.2, Molecular Devices) was used for data acquisition and analysis. To evaluate the activity of exemplary compounds on Kv7.2 (see Table 1), as well as on Kv7.1, Kv7.2/7.3, Kv7.3 and Kv7.4 channels for selected compounds (see Table 2), the cells were clamped at -80 mV and currents were elicited by 3-s voltage ramps from -80 mV to +20 mV in the presence and absence of each compound. […] The effects of drugs were expressed as shift in the ramp-voltage (ΔV) calculated at 20% of the maximal current (Miceli et al, Proc Natl Acad Sci U S A. 2013, 110(11):4386-91). […]
# [2] = Solution stability (HPLC, extracellular solution, ambient temperature); type: physicochemical; conditions: percentage of degradation after 6 h at ambient temperature; 100 ppm in extracellular solution pH 7.4
# Procedure, shortened: (§2)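 Analyte diluted from 1 mg/mL DMSO stock to 100 ppm in extracellular buffer (NaCl, CaCl2, KCl, MgCl2, glucose, HEPES, pH 7.4) and either kept at ambient temperature or irradiated with a solar simulator, each for 6 h. C18 RP-HPLC (40°C) peak areas at 0 and 6 h give % degradation = (Pa0−Pa6)/Pa0 ×100.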
# [3] = Photostability (HPLC, solar simulator irradiation); type: physicochemical; conditions: for Photostability: percentage of degradation after 6 h irradiation with solar simulator, 100 ppm in extracellular solution pH 7.4
# Procedure, shortened: as §2
# Kv7.2/7.3 = target: T2, Kv7.2/7.3 (Homo sapiens, UniProt O43525+O43526); experiment: Whole-cell patch-clamp on CHO cells co-expressing Kv7.2 and Kv7.3; type: cell-based; conditions: for EC50: Kv7.2/7.3, shift in ramp-voltage (ΔV) at 20% of maximal current, 0.01-10 µM
# T2 construct: expressed in transfected cells; host or cells: CHO cells (ATCC CRL-9618), transient co-transfection, pcDNA3.1(+)
# Procedure: as §1
# Currents from CHO cells were recorded at room temperature (20-22°C) 24 hours after trasfection using the whole-cell configuration of the patch-clamp technique, with glass micropipettes of 3-5 MΩ resistance. During the recording, constant perfusion of extracellular solution was maintained. The extracellular solution contained (in mM): 138 NaCl, 2 CaCl2, 5.4 KCl, 1 MgCl2, 10 glucose, and 10 HEPES, at pH 7.4, adjusted with NaOH. The pipette (intracellular) solution contained (in mM): 140 KCl, 2 MgCl2, 10 EGTA, 10 HEPES, 5 Mg^2+-ATP, at pH 7.3-7.4, adjusted with KOH. Currents were recorded using an Axopatch-200A amplifier, filtered at 5 kHz, and digitized using a DigiData 1440A (Molecular Devices). The pCLAMP software (version 10.2, Molecular Devices) was used for data acquisition and analysis. To evaluate the activity of exemplary compounds on Kv7.2 (see Table 1), as well as on Kv7.1, Kv7.2/7.3, Kv7.3 and Kv7.4 channels for selected compounds (see Table 2), the cells were clamped at -80 mV and currents were elicited by 3-s voltage ramps from -80 mV to +20 mV in the presence and absence of each compound. […] The effects of drugs were expressed as shift in the ramp-voltage (ΔV) calculated at 20% of the maximal current (Miceli et al, Proc Natl Acad Sci U S A. 2013, 110(11):4386-91). Curves were fitted using the following equation: y=max/(1+x/EC50)n, where x is the drug concentration, n is the Hill coefficient and max is the maximal value achieved, as previously described (Ambrosino et al, Br J Pharmacol. 2013, 168(6):1430-1444). Data analysis and fit were performed using Sigmaplot (version 12.3).
# Kv7.3 = target: T3, Kv7.3 (Homo sapiens, UniProt O43525); experiment: Whole-cell patch-clamp on CHO cells transiently expressing Kv7.3; type: cell-based; conditions: shift in ramp-voltage (ΔV) at 20% of maximal current, 0.01-10 µM
# T3 construct: expressed in transfected cells; host or cells: CHO cells (ATCC CRL-9618), transient transfection, pcDNA3.1(+)
# Procedure: as §1
# (§3) Currents from CHO cells were recorded at room temperature (20-22°C) 24 hours after trasfection using the whole-cell configuration of the patch-clamp technique, with glass micropipettes of 3-5 MΩ resistance. During the recording, constant perfusion of extracellular solution was maintained. […] Currents were recorded using an Axopatch-200A amplifier, filtered at 5 kHz, and digitized using a DigiData 1440A (Molecular Devices). […] The effects of drugs were expressed as shift in the ramp-voltage (ΔV) calculated at 20% of the maximal current (Miceli et al, Proc Natl Acad Sci U S A. 2013, 110(11):4386-91). […]
# Kv7.2 W236L = target: T4, Kv7.2 W236L (Homo sapiens, UniProt O43526, W236L); experiment: Whole-cell patch-clamp on CHO cells expressing Kv7.2 W236L mutant channels; type: cell-based; conditions: 10 µM
# T4 construct: expressed in transfected cells; host or cells: CHO cells (ATCC CRL-9618), transient transfection, pcDNA3.1(+)
# Procedure: as §1, §3
# Kv7.4 = target: T5, Kv7.4 (Homo sapiens, UniProt P56696); experiment: Whole-cell patch-clamp on CHO cells transiently expressing Kv7.4; type: cell-based; conditions: shift in ramp-voltage (ΔV) at 20% of maximal current, 0.01-10 µM
# T5 construct: expressed in transfected cells; host or cells: CHO cells (ATCC CRL-9618), transient transfection, pcDNA3.1(+)
# Procedure: as §1, §3
# Kv7.2 [4] = experiment: Whole-cell patch-clamp on CHO cells transiently expressing Kv7.2; type: cell-based, human; conditions: ratio of EC50 values Kv7.3/Kv7.2
# Kv7.2 [5] = target: T6, Kv7.2 (Homo sapiens, UniProt O43526); experiment: as above; type: cell-based; conditions: for EC50: Kv7.2, shift in ramp-voltage (ΔV) at 20% of maximal current, 0.01-10 µM; for Idrug/Ictl at 0 mV: ratio of ramp-evoked Kv7.2 current amplitude in presence and absence of drug at 0 mV; for Idrug/Ictl at 0 mV / Idrug/Ictl at -40 mV: CHO cells, mean±SEM, >1 activating, <1 inhibiting; for Idrug/Ictl at -40 mV: ratio of ramp-evoked Kv7.2 current amplitude in presence and absence of drug at -40 mV
# T6 construct: expressed in transfected cells; host or cells: CHO cells (ATCC CRL-9618), transient transfection, pcDNA3.1(+)
SMILES,fast absorption after oral administration (time after administration) [1] [h],EC50 (Kv7.1),Solution stability [2],drug degraded after exposure to light ([3]; after 6 hours of exposure to light) [%],Photostability [3],EC50 (Kv7.2/7.3) [nM],EC50 (Kv7.3) [nM],ratio between current amplitude in the presence and absence of the drug at -40 mV (Kv7.2 W236L),EC50 (Kv7.4) [nM],potency in activating Kv7.2 compared to Kv7.3 homomers (Kv7.2 [4]),EC50 (Kv7.2 [5]) [nM],Idrug/Ictl at 0 mV (Kv7.2 [5]),Idrug/Ictl at -40 mV (Kv7.2 [5]),potency relative to retigabine in increasing Kv7.2/3 currents (Kv7.2/7.3; from EC50 values of Table 2)
"CCOC(=O)Nc1ccc(NCc2ccc(F)cc2)cc1N [Retigabine, reference compound]",1.5 to 2.0,Inactive,A (degradation lower than 20%),> 40,C (degradation > 40%),1720 ± 410,3900 ± 1700,1.2±0.1,1980 ± 840,4 fold,930 ± 430,1.95±0.12,6.20±1.03,–
CCCCCCC(=O)Nc1ccc2c(ccn2Cc2ccc(C(F)(F)F)cc2)c1 [N-(1-(4-(trifluoromethyl)benzyl)-1H-indol-5-yl)heptanamide],–,Inactive,A (degradation lower than 20%),–,A (degradation lower than 20%),210 ± 140,10500 ± 6000,1.3±0.3,100 ± 20,about 130 fold,80 ± 40,3.24±0.18,9.34±0.82,eight times more potent than retigabine
